Assay results: patent US9248202B2, “Two-photon probe for detecting copper(II) ion and quantitative estimation of copper(II) ion in human tissue using the same” (Korea University Research and Business Foundation, priority 2014, dated 2016)
Converted amounts (≈) assume the structure as drawn.

How the values were obtained:
rat brain tissue = assay: Quantitative estimation of copper(II) ion in rat brain tissue slices by TPM
Experimental: Slices were prepared from the hippocampi and hypothalami of 2-day-old Sprague-Dawley (SD) rats. Coronal slices were cut into 400 μm thickness using a vibrating-blade microtome in artificial cerebrospinal fluid (ACSF; 138.6 mM NaCl, 3.5 mM KCl, 21 mM NaHCO3, 0.6 mM NaH2PO4, 9.9 mM D-glucose, 1 mM CaCl2 and 3 mM MgCl2). The slices were incubated with 20 μM ACCu2 in ACSF bubbled with 95% O2 and 5% CO2 for 30 minutes at 37° C. The slices were e then washed 3 times with ACSF, transferred to glass-bottomed dishes (MatTek) and observed with spectral confocal and rnultiphoton microscopy.
Because the structure of the brain tissue is heterogeneous, TPM images were acquired at depths of 90-190 μm to visualize the overall copper(II) on distribution.

[1] = Solubility in HEPES buffer by fluorescence method; assay type: physicochemical; conditions: aqueous buffer; HEPES buffer ([HEPES]=20 mM, pH 7.0)
Experimental: (hereinafter, ‘ACCu2’), a compound of [Chemical Formula 12] (hereinafter, ‘FL’) and a compound of [Chemical Formula 13] (hereinafter, ‘IR’) in 1,4-dioxane, DMF, ethanol, EtOH/HEPES (9:1) and HEPES buffer ([HEPES]=20 mM, pH 7.0). Excitation wavelength was 420 nm. The solubility of ACCu2 in HEPES buffer ([HEPES]=20 mM, pH 7.0) as determined by the fluorescence method described in the literature (Kim, H. M.; Choo, H. J.; Jung, S. Y.; Ko, Y. G.; Park, W. H.; Jeon, S. J.; Kim, C. H.; Joo, T. H.; Cho, B. R. Chem Bio Chem 2007, 8, 553) was 8.0 μM, which was sufficient to stain cells.

[2] = Two-photon action cross section; assay type: physicochemical; conditions: at 880 nm, EtOH/HEPES (9/1 v/v, pH 7.0)
Experimental: Referring to FIG. 4(a), the Φδmax value of ACCu2 in EtOH/HEPES (9/1 v/v, pH 7.0) buffer was 32 GM at 880 nm, while those for FL and IR were 32 GM at 880 nm and 46 GM at 750 nm. The lower Φδmax value of ACCu2 at 750 nm than that of IR is because of decreased fluorescence resonance energy transfer (FRET) from IR to FL and it allows to obtain bright TPM images of cells and ^.tissues labeled with ACCu2.
The two-photon cross section (δ) was determined by the fe tosecond (fs) fluorescence measurement technique described in the literature (S. K. Lee, W. J. Yang, J. J. Choi, C. H. Kim, S.-J. Jeon, B. R. Cho, Org. Lett 2005, 7, 323-326.), ACCu2 was dissolved in 20 mM HEPES buffer (pH 7.0) to a concentration of 3.0×10^−6 M and then two-photon induced fluorescence intensity was measured at 740-940 nm using rhodamine 6G as a reference, whose two-photon property has been well characterized. The intensities of two-photon induced fluorescence of the reference and the sample were determined at the same excitation wavelength.
The two-photon cross section can be calculated from equation (3). δ=δr(SsΦrΦrcr)/(SrΦsΦscs) Equation (3)
wherein s and r stand for the sample, i.e., ACCu2, and the reference, respectively. S denotes the intensity of the signal collected using a CCD detector, Φ is the fluorescence quantum yield, Φ is the overall fluorescence collection efficiency of the experimental apparatus, c is the number density of molecules in solution, and δr is the two-photon cross section of the reference molecule.

HeLa cells = assay: Two-photon microscopy of ACCu2-labeled HeLa cells, copper(II) ion estimation; assay type: cell-based, human; conditions: for free copper(II) ion concentration: from Ired/Iblue ratio and titration curve
Text: The two curves were similar to the TPEF spectra of HeLa cells labeled with FL and IR. And, the OP-excited fluorescence (OPEF) spectra of FL and IR measured in EtOH/HEPES (9/1 v/v, pH=7.0) (see Table 1 and FIG. 1) confirmed that this solvent is a good model of the intracellular environment.
In order to investigate the utility of ACCu2 in living cells, TPM images of ACCu2-labeled HeLa cells and tissues were obtained using spectral confocal and multiphoton microscopes (Leica TCS SP2) with ×100 (NA=1.30 OIL) and ×40 (NA=0.75 DRY) objective lenses.
The TPM images were obtained with the DM IRE2 microscope (Leica) by exciting the probes with a mode-locked titanium-sapphire laser source (Coherent Chameleon, 90 MHz, 200 fs) set at a wavelength of 780 nm and an output power of 1305 mW. To obtain images at 400-650 nm, internal PMTs were used to collect signals in 8-bit unsigned 512×512 pixels at a scan rate of 400 Hz.
HeLa human cervical carcinoma cells were acquired from the ATCC (Manassas, Va., USA). The cells were cultured in DMEM (WelGene, Inc., Seoul, Korea) supplemented with heat-inactivated 10% FBS (WelGene), penicillin (100 units/mL) and streptomycin ([…]), All the cell lines were maintained in a humidified atmosphere of 5% CO2 and 95% air at 37° C. Two days before imaging, the cells were moved and plated onto glass-bottomed dishes (MatTek), For labeling, the growth medium was removed and replaced with FBS-free DMEM. The cells were incubated with 3 μM ACCu2 for 20 minutes at 37° C., washed 3 times with FBS-free DMEM and imaged.
Ratiometric images were constructed from the TPEF intensities collected in the two channels (FIG. 9(a)-(c)). The Ired/Iblue ratio for the ACCu2-labeled HeLa cells was measured as 9.9±0.8 (FIG. 9(d)). The ratio decreased to 6.5 upon addition of copper(II) ion (200 μM) and pyrrolidine dithiocarbamate (PDTC, 100 μM) due to accumulation of copper(II) ion inside the cells, and increased to 9.8 upon treatment with ethylenediaminetetraacetic acid (EDTA, 100 μM), a […] metal on chelator that effectively removes copper(II) ion.
Since Iblue remains constant, ACCu2 according to the present disclosure can measure the Ired/Iblue ratio more accurately than the existing probe which requires the measurements of the changes in both Ired and Iblue. The free copper(II) ion concentration was calculated as 0.0±0.7 μM (FIG. 9(a)), 15±2 μM (FIG. 9(b)) and 0.0±1.9 μM (FIG. 9(c)) from the Ired/Iblue ratio and the titration curve shown in FIG. 5(b).

[3] = rat brain tissue, after copper(II) ion (500 μM) and PDTC (200 μM)
[4] = ACCu2-labeled HeLa cells, 750 nm TP excitation, scanning lambda mode

For `COCCOCCOCCOc1ccc2c(ccc3cc(C(=O)N4CCN(C(=O)c5ccc(CNC(=O)c6cc7cc8ccc(N(C)C)cc8cc7oc6=O)nc5)CC4)c(=O)oc32)c1` [ACCu2], the Ired/Iblue ratio (rat brain tissue; ACCu2 (20 μM)-labeled rat brain tissue, untreated) was 9.9±0.5, the Ired/Iblue ratio (rat brain tissue; [3]) was 6.8±0.6 and the “free copper ion concentration” value (rat brain tissue; [3]) was 14 ± 1.5 µM. The “free copper(II) ion concentration” value (rat brain tissue; rat brain tissue, untreated) was 0.0 ± 1.1 µM, the solubility [1] was 8 µM (≈ 6.96 µg/mL) and the “Φδmax (two-photon action cross section)” value [2] was 32 GM. The “TPEF emission maximum, first Gaussian function (solid curve)” value (HeLa cells; [4]) was 470 nm, the “TPEF emission maximum, second Gaussian function (dotted curve)” value (HeLa cells; [4]) was 582 nm and the Ired/Iblue ratio (HeLa cells; ACCu2-labeled HeLa cells, before addition of copper(II) ion) was 9.9±0.8. The “free copper(II) ion concentration” value (HeLa cells; HeLa cells, FIG. 9(a)) was 0.0 ± 0.7 µM, the “free copper(II) ion concentration” value (HeLa cells; HeLa cells, FIG. 9(b)) was 15 ± 2 µM and the “free copper(II) ion concentration” value (HeLa cells; HeLa cells, FIG. 9(c)) was 0.0 ± 1.9 µM. The Ired/Iblue ratio (HeLa cells; HeLa cells, after copper(II) ion (200 μM) and PDTC (100 μM)) was 6.5 and the Ired/Iblue ratio (HeLa cells; HeLa cells, after further treatment with EDTA (100 μM)) was 9.8.
